# Values of other authors, collected in patent US20150190331A1, “NAIL LACQUER COMPOSITION WITH HYPOSENSITIVITY” (Pakaly Enterprise Co., Ltd., priority 2014, published 2015).
# Tested on: guinea pigs
# Conditions: in guinea pigs; International Journal of Toxicology 24(Suppl 5): 53-100, 2005
row,Molecule,sensitizer strength
1,C=C(C)C(=O)OCCCC [Butyl Methacrylate],moderate sensitizers
2,C=C(C)C(=O)OC1CCCCC1 [Cyclohexyl Methacrylate],moderate sensitizers
3,"C=C(C)C(=O)OCCO [HEMA, hydroxyethylmethacrylate]",strong sensitizers
4,C=C(C)C(=O)OCCCCCC [Hexyl Methacrylate],moderate sensitizers
5,C=C(C)C(=O)OCCCO [Hydroxypropyl Methacrylate],weak sensitizer
6,C=C(C)C(=O)OCC(O)COc1ccc(C(C)(C)c2ccc(OCC(O)COC(=O)C(=C)C)cc2)cc1 (centres unmarked) [Isopropylidenediphenyl Bisglycidyl Methacrylate],strong sensitizers
7,C=C(C)C(=O)OCCCCCCCCCCCC [Lauryl Methacrylate],strong sensitizers
8,C=C(C)C(=O)OCCOCCOCCOC(=O)C(=C)C [Triethylene Glycol Dimethacrylate],not sensitizers
9,C=C(C)C(=O)OCC(CC)(COC(=O)C(=C)C)COC(=O)C(=C)C [Trimethylolpropane Trimethacrylate],strong sensitizers
10,PEG-4 Dimethacrylate,not sensitizers
11,Urethane Methacrylate,moderate sensitizers
